≈ marks a conversion by molar mass, not a printed value. Like-named read-outs stand apart in the source and are kept apart here.
How the values were obtained:
[1] = test system: Staphylococcus aureus ATCC 29213; experiment: Antibacterial susceptibility testing, IC90 determination (STA); type: cell-based; conditions: resazurin; for IC90: Staphylococcus aureus, ATCC29213, Staphylococcus aureus ATCC 29213, broth microdilution, read-out: STA (361.159) IC90; for STA (361.159) IC90: Staphylococcus aureus ATCC 29213, broth microdilution
Method in brief: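 S. aureus ATCC 29213 tested by broth microdilution in Mueller-Hinton broth, 5×10^5 CFU/ml, two-fold compound dilutions typically 63 to 0.49 μM, 1.25% DMSO, 16-20 h at 35° C. Growth read fluorometrically with resazurin (ex 540/em 590 nm); IC90 in μg/ml is 90% growth-inhibitory concentration.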

[2] = test system: S. aureus strain ATCC 29213; experiment: In vivo efficacy, peritonitis model of S. aureus infection; conditions: female Swiss albino mice, IP infection, inoculum 8.7 log10, IV, QD, 20% CD + 2H2T, 3 days post-infection
Text: The concept of studying the in vivo effect of an antibacterial compound by treating intraperitoneally infected mice was introduced in 1911 for optochin against pneumococci (Morgenroth and Levy, 1911). The popularity of the model comes from the ease of its use with short-duration experiments, reproducible infections and simple end-points.
Methicillin-sensitive S. aureus strain ATCC 29213 was used to infect female Swiss albino mice. A Brain Heart Infusion (BHI) broth bacterial culture was inoculated the day before infection, incubated at 37° C. overnight and diluted in fresh BHI broth to the desired concentration. Intraperitoneal (i.p.) injection of ˜5×10^9 colony forming units (CFU) was performed in either of the lateral lower quadrants of the abdomen. After inoculation, mice were kept in their cages under daily observation for development of signs of infection or death. For the treatment of mice, the p.o. route was used and each mouse was treated individually by gavage. Example of Cpd No. 48 was formulated as a 20% HP-β-cyclodextrin and example of Cpd No. 38 was formulated as a water/Tween-20 suspension. The parameter used for monitoring the course of infection and the effect of treatment was death or survival of the animals over 3 days post-infection. As death could also be due to toxic side effects, a non-infected control group of 3 mice, treated with the highest dose of the compound tested, was included.

[3] = Cytotoxicity MTT assay (HELAM); type: cell-based, Human; conditions: human, HelaM cells, read-out: HELAM (222.125) CC50
Method in brief: (§1)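 HelaM cells exposed 72 h at 37° C to serial dilutions, typically 25 to 0.8 μM, in 0.5% DMSO. MTT formazan dissolved in 2-propanol, absorbance at 540 nm minus 690 nm; CC50 is concentration halving viability.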

[4] = In vivo pharmacokinetic and oral bioavailability in mouse; set-up: species or system male Swiss mice; conditions: for Vdz: i.v.; for half-life: read-out: Half life (t1/2) (converted); for clearance: read-out: Plasma clearance Cl (converted)
Experimental: The in vivo pharmacokinetics and oral bioavailability of the compound of the examples were/are investigated in male Swiss mice (fed) following single intravenous (i.v.) bolus and oral (p.o.) administration. For the i.v. and p.o. solution formulations, the compound was/is dissolved in a 20% HP-β-CD solution. The pH of the formulations was/is around pH 4. All i.v. formulations were isotonic.

[5] = target: T1, S. aureus ATCC 29213 FabI (Staphylococcus aureus, UniProt Q6GI75); experiment: Staphylococcus aureus FabI enzyme inhibition assay; type: biochemical; conditions: read-out: FabI (300.235) IC50 (converted)
T1 sequence (Q6GI75 1-256): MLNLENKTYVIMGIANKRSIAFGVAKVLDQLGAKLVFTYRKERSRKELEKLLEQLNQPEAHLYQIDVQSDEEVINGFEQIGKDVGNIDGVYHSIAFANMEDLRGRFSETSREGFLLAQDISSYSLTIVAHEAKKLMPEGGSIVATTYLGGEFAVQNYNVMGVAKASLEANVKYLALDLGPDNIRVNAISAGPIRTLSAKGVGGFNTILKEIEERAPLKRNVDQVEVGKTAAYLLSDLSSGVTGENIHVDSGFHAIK
Method in brief: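 S. aureus ATCC 29213 FabI (50 μg/ml) with 250 μM crotonoyl-CoA and 625 μM NADH in 100 mM NaADA pH 6.5, inhibitor 50–0.39 μM, 30 min at room temperature. Stopped by Tris pH 9.0 shift; NADH at 340 nm versus no-compound and no-enzyme controls; IC50 in μg/ml.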

S. aureus = experiment: Antibacterial susceptibility testing, IC90 determination with 10% human serum (STA + 10% HS); type: cell-based, Staphylococcus aureus; conditions: human serum at final concentration of 10%; for IC90: Staphylococcus aureus, read-out: STA + 10% HS (361.169) IC90
Method in brief: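 Broth microdilution in Mueller-Hinton broth with 10% human serum, 5×10^5 CFU/ml S. aureus, two-fold compound dilutions (typically 63 to 0.49 μM), 1.25% DMSO, 16-20 h at 35° C. Growth read fluorometrically with resazurin (ex 540/em 590 nm); IC90 in μg/ml is the 90% growth-inhibitory concentration.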

[6] = Thermodynamic solubility (pH solubility profiling); type: physicochemical; conditions: thermodynamic from solid
Experimental: The pH solubility profiling was carried out at ambient temperature for a period of 4 days. A saturation solubility study was carried out in order to determine maximum solubility in a particular buffer solution. The compound was added to respective buffer solution until saturation point is reached. This was followed by shaking the flask for 4 days at ambient temperature. After 4 days, the solutions were filtered and injected on UPLC and the concentration was determined using a generic HPLC method.

Human HelaM cells = experiment: Cytotoxicity MTT assay (HELAM); type: cell-based; conditions: 72 hours
Method in brief: as §1

[7] = 2.5 mg/kg, 20% HP-β-cyclodextrin
[8] = male, Swiss, plasma, iv, 2.5 mg/kg, 20% HP-β-cyclodextrin
[9] = male, Swiss, plasma, po, 10 mg/kg, 20% HP-β-cyclodextrin
[10] = aqueous buffer, Buffer pH 4, ambient temperature
[11] = aqueous buffer, Buffer pH 7.4, ambient temperature
[12] = aqueous with cosolvent or surfactant or cyclodextrin, 10% HP-β-CD buffer pH 4, ambient temperature
[13] = aqueous with cosolvent or surfactant or cyclodextrin, 10% HP-β-CD buffer pH 7.4, ambient temperature
[14] = aqueous with cosolvent or surfactant or cyclodextrin, 20% HP-β-CD buffer pH 4, ambient temperature
[15] = aqueous with cosolvent or surfactant or cyclodextrin, 20% HP-β-CD buffer pH 7.4, ambient temperature
[16] = pH 2, aqueous with cosolvent or surfactant or cyclodextrin, 20% HP-β-CD 0.01N HCl, ambient temperature
[17] = pH 2, simulated gastric fluid, 0.01N HCl, ambient temperature
[18] = male, Swiss, plasma, po, 5 mg/kg, 20% HP-β-cyclodextrin

Compound | IC90 [1] | CC50 at 72 h [3] | IC50 [5] | IC90 (S. aureus) | solubility thermodynamic at 4 days [6, 10] | solubility thermodynamic at 4 days [6, 11] | solubility thermodynamic at 4 days [6, 12] | solubility thermodynamic at 4 days [6, 13] | solubility thermodynamic at 4 days [6, 14] | solubility thermodynamic at 4 days [6, 15] | solubility thermodynamic at 4 days [6, 16] | solubility thermodynamic at 4 days [6, 17] | melting point | STA (361.159) IC90 [1] | HELAM (222.125) CC50 (Human HelaM cells) | STA + 10% HS (361.169) IC90 (S. aureus) | also measured
O=C1CNCc2cc(/C=C/C(=O)N3CC4C=C(c5ccccc5)CC4C3)cnc2N1 (stereo not drawn) [Cpd. No. 38] | < 0.19 µg/mL | > 10.1 µg/mL | 1050 nM | 0.24 µg/mL | – | – | – | – | – | – | – | – | – | – | – | – | % Survival ([2]; 2.5 mpk): 75%; % Survival ([2]; 5 mpk): 100%; Vdz [4, 7]: 3.1 L/kg; AUC(0-inf) [4, 8]: 2000 ng·h/mL; half-life [4, 8]: 1.7 h; clearance [4, 8]: 21.7 mL/min/kg; AUC(0-inf) [4, 9]: 2860 ng·h/mL; Cmax [4, 9]: 665 ng/mL; Tmax [4, 9]: 1.7 h; half-life [4, 9]: 2.2 h; bioavailability ([4]; male, Swiss, plasma, po, p.o. 10 mg/kg vs i.v. 2.5 mg/kg): 36%
O=C1Nc2ncc(/C=C/C(=O)N3CC4C=C(c5nccs5)CC4C3)cc2CN2CCOCC12 (stereo not drawn) [Cpd. No. 74] | < 0.23 µg/mL | > 11.2 µg/mL | 992 nM | < 0.23 µg/mL | 40 µg/mL (≈ 86.3 µM) | 30 µg/mL (≈ 64.7 µM) | > 1280 µg/mL | > 1210 µg/mL | > 2360 µg/mL | > 1330 µg/mL | > 2360 µg/mL | 670 µg/mL (≈ 1450 µM) | > 260 °C | – | – | – | –
O=C(Nc1ccc(/C=C/C(=O)N2CC3C=C(c4ccncc4)CC3C2)cn1)c1cccnc1 (stereo not drawn) [compound 9] | 0.34 µg/mL (≈ 0.777 µM) | > 11 µg/mL | – | 0.39 µg/mL | 120 µg/mL (≈ 274 µM) | < 10 µg/mL | 830 µg/mL (≈ 1900 µM) | > 1120 µg/mL | > 5230 µg/mL | > 4940 µg/mL | > 4930 µg/mL | > 1250 µg/mL | 196 °C | – | – | – | –
O=C1COc2cc(/C=C/C(=O)N3CC4C=C(c5ccccc5)CC4C3)cnc2N1 (stereo not drawn) [compound 37] | < 0.19 µg/mL | > 9.73 µg/mL | ~1160 nM | 0.25 µg/mL | – | – | – | – | – | – | – | – | > 260 °C | – | – | – | Vdz [4, 7]: 1.5 L/kg; AUC(0-inf) [4, 8]: 7890 ng·h/mL; C0 [4, 8]: 3930 ng/mL; half-life [4, 8]: 3.33 h; clearance [4, 8]: 5.33 mL/min/kg; AUC(0-inf) [4, 18]: 15600 ng·h/mL; Cmax [4, 18]: 2330 ng/mL; Tmax [4, 18]: 1 h; half-life [4, 18]: 3.5 h; bioavailability ([4]; male, Swiss, plasma, po, p.o. 5 mg/kg vs i.v. 2.5 mg/kg): 98%
O=C1CNCc2cc(/C=C/C(=O)N3CC4C=C(c5ccccc5)CC4C3)cnc2N1 (stereo not drawn) [compound 47] | – | – | 874 nM | – | – | – | – | – | – | – | – | – | – | 0.24 µg/mL | >10.06 µg/mL | 0.26 µg/mL | –
CN1CC(=O)Nc2ncc(/C=C/C(=O)N3C[C@@H]4CN(c5ccccc5)C[C@@H]4C3)cc2C1 [compound 60] | – | – | 2180 nM | – | – | – | – | – | – | – | – | – | 178 °C | 5.50 µg/mL | >10.49 µg/mL | 3.85 µg/mL | –
O=C1Nc2ncc(/C=C/C(=O)N3CC4C=C(c5ccccc5)CC4C3)cc2CN2CCOCC12 (stereo not drawn) [compound 69] | – | – | 1030 nM | – | – | – | – | – | – | – | – | – | – | 0.15 µg/mL | 8.31 µg/mL | 0.22 µg/mL | –
O=C1Nc2ncc(/C=C/C(=O)N3CC4C=C(c5ccccc5)CC4C3)cc2CN2CCNCC12 (stereo not drawn) [compound 79] | 0.36 µg/mL (≈ 0.79 µM) | > 11.4 µg/mL | 1320 nM | < 0.22 µg/mL | 150 µg/mL (≈ 329 µM) | 10 µg/mL (≈ 22 µM) | > 5330 µg/mL | > 5110 µg/mL | > 4450 µg/mL | > 4880 µg/mL | > 4490 µg/mL | > 1160 µg/mL | 191 to 216 °C | – | – | – | –

Source: patent US9315522B2, “Antibacterial compounds” (JANSSEN SCIENCES IRELAND UC, priority 2012, dated 2016)
